Experimental findings from patent publication US9642835B2, “Modulators of GTPase and use in relevant treatment” (STC.UNM, priority 2010, dated 2017) are described below.

Experiment [1] relates to Dbs (guanine nucleotide exchange factor) on Cdc42 wt. The experiment in a line: Effect on Dbs activity, [3H]GDP/GTP exchange. In kind it is biochemical. To be noted: 10 μM. On the procedure:
GSH-beads were coupled with Cdc42 wt, washed and incubated with 10 mM EDTA-NP-HPS for 20 min at 30° C. Nucleotide depleted enzyme washed with NP-HPS, and incubated with 2μCi [^3H]GDP in the presence of 1 mM EDTA (in NP-HPS buffer) for 20 min at 30° C. To prevent the dissociation of tritiated guanine nucleotide from the Cdc42, MgCl2 was added to a final concentration 20 mM. [^3H]GDP-Cdc42-beads washed and re-suspended in GDP exchange buffer (NP-HPS with 1 mM EDTA, 5 mM MgCl2, and 1 mM DTT) and 100 μl aliquots loaded in tubes and incubated with vehicle or 10 μM MLS000693334 for 15 min. Effect of the guanine nucleotide exchange factor domain, Dbs on GDP/GTP exchange in the presence and absence of inhibitor was measured after addition of 200 nM His-DBS (DH/PH domain). The GDP/GTP exchange reaction was initiated by addition of 250 nM GTP and incubation samples for 2 min 30 C. The reaction was stopped by transferring samples on ice. Cdc42-beads collected and washed twice with ice cold GDP exchange buffer and measured radioactivity, by loading samples in scintillation vial.

Experiment [2] concerns the target His-Cdc42 binding to GST-PAK-PBD (Homo sapiens, UniProt P60953). The experiment in a line: In vitro Cdc42-GTPγS formation PAK-PBD pull-down. Conditions: 10 μM inhibitor. Format: biochemical. On the procedure:
For analysis of the effect of MLS000693334 on the formation of the GTP-bound form of Cdc42 in vitro, 40 nM His-Cdc42 wt incubated (20 min at 30 C) with various concentration of GTPγS in the presence of 1 mM EDTA containing NP-HPS buffer. Reaction stopped by adding of excess amount of MgCl2. Mixture incubated with 15 μl PAK-PBD/beads (Cytoskeleton Inc., Denver, Colo.) for 1 h. Washed 2× and active Cdc42 analyzed by Western blot using mAb for Cdc42 (Cytoskeleton Inc., Denver, Colo.) and Mouse TrueBlot Ultra: Horseradish Peroxidase anti-mouse IgG (eBioscience. San Diego, Calif.) followed by ECL (Thermo Scientific, Rockford, Ill.).
For in vitro Cdc42 activation measurements, DMSO or an equal volume of SID57578341 in DMSO were incubated for 20 min at 30° C. with 40 nM His-Cdc42 protein and varying concentrations of GTPγS in 1 mM EDTA-containing buffer (NP-HPS). Further nucleotide exchange was inhibited with the addition of excess MgCl2 (60 mM final) and transfer to ice. Activated Cdc42 protein was isolated from solution by adding 15 μl GST-PAK-PBD bound glutathione beads and rotation at 4° C. for 1 h. Activated Cdc42 bound to GST-PAK-PDB was resolved by SDS-PAGE (12% gels) and analyzed by immunoblot using mAb directed against Cdc42 (Cytoskeleton, Inc.) and ECL (Thermo Scientific, Rockford, Ill.). Quantification was by densitometry.

In the next experiment the test system is Cdc42 in Swiss 3T3 cells. The experiment in a line: EGF induced Cdc42 membrane localization. Format: cell-based. To be noted: 1 μM. On the procedure:
Subconfluent cells were starved overnight in DMEM without serum and incubated with 1 or 10 μM inhibitor for 1 h. As a positive control, cells were stimulated with 100 ng/ml bradykinin for 30 min, or 100 ng/ml EGF as previously described {Kozma, 1995 #24}. Cells were washed with phosphate buffered saline, fixed with 3% paraformaldehyde, permeabilized for 5 min with 0.1% Triton X-100 in Tyrode's buffer, blocked for 1 h with 1% BSA in Tyrode's buffer, and stained for 1 h with rhodamine-phalloidin or Cdc42 mAb (Cytoskeleton Inc., Denver, Colo.) for 1 h followed by Cy3-conjugated goat-anti-mouse antibody (Jackson Immunoresearch Laboratories) for 1 h, at RT.

In a further experiment the test system is RBL-2H3 cells. Briefly: RBL cell morphology, actin and Cdc42 distribution after activation. In kind it is cell-based, rat. Conditions: 10 μM. The protocol:
Live cell microscopy was carried out on RBL-2H3 cells. Cells were grown on coverslips overnight, washed and overlaid with Tyrode's buffer (10 mM Hepes, pH 7.4, 130 mM NaCl, 5 mM KCl, 1.4 mM CaCl2, 1 mM MgCl2, 5.6 mM glucose and 0.1% BSA). Time lapse images were taken after addition of 10 μM MLS000693334 (final concentration) at 60 s intervals for up to 30 min. Activation with Thy-1 cross-linking was performed as described {Surviladze, 1998 #50}. Briefly, RBL cells incubated with OX7 mAb (Santa Cruz Biothechnology) final concentration 50 ug/ml for 1 h at 37 C. The unbound OX7 mAb was washed out with Tyrode's solution and activation initiated by adding anti-mouse IgG (25 ug/ml) (Jackson Immunoresearch Laboratories). Imaging was performed using a Bio-Rad Radiance 2100 confocal microscope equipped with a 60×1.4 NA oil immersion objective equipped with Lasersharp3000 software.
RBL-2H3 cells were grown in RPMI supplemented with 10% fetal bovine serum on cover slips. Semi-confluent cells were washed with Tyrode's solution and incubated with DMSO (vehicle) or 10 μM MLS000693334 for 1 h at 37° C. Inhibitor treated and un-treated cells were stimulated with 1 μg/ml DNP-BSA for 30 min as previously described {Wilson, 1991 #52}. Activation stopped by transferring of samples on ice. […]

The structures appear in SMILES notation.

Sequence of His-Cdc42 binding to GST-PAK-PBD (P60953 whole entry): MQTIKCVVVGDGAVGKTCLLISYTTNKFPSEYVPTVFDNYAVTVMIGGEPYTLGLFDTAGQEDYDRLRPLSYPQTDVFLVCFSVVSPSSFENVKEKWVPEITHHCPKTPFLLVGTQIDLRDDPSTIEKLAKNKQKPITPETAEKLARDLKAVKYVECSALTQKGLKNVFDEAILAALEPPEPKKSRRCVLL

With `COc1ccc(C2CC(c3ccccc3)=NN2c2ccc(S(N)(=O)=O)cc2)cc1` (centres unmarked) [MLS000693334, 4-[3-(4-methoxyphenyl)-5-phenyl-3,4-dihydropyrazol-2-yl]benzenesulfonamide], in experiment [1], the “Dbs activity (GDP/GTP exchange)” value is on record as “did not changes Dbs activity”. The “Complex formation of active Cdc42(GTPγS) with PAK-PBD” value in experiment [2] was “dramatically reduced”. For the same compound, the “EGF induced localization of Cdc42 on the membrane” value in the experiment with Cdc42 in Swiss 3T3 cells is “reduced membrane localization”. In the experiment on RBL-2H3 cells, the “Filopodia formation and cell spreading after cross-linking of Thy-1” value is on record as “dramatically inhibits”; the “Morphology of resting RBL-2H3 cells” value is given as “no change in morphology”.
